In patent publication US20250003952A1, “SENOLYTIC DRUG SCREENING METHOD AND SENOLYTIC DRUG” (KYOTO UNIVERSITY, priority 2021, published 2025):

Columns and labels:
[1] = system: glycolytic metabolism; assay: Glycolytic metabolism (glucose consumption, lactate production) in etoposide-induced senescent IMR90 cells; type: cell-based, human; conditions: 20 μM or 40 μM for 48 hours
Method: Next, young cells (within 1 month of continuous culture) of the IMR90 cells were treated with 100 μM etoposide for 48 hours to acquire senescent cells. […] After the nutlin treatment, the medium was collected, and glucose consumption was evaluated and lactate production was measured. The lactate level is calculated as a value (μmol/mg/h) obtained by measuring the amount of lactate secreted into the medium per hour (μmol/h) and correcting the same by the total cell protein (mg) and is expressed as a value relative to the actual value on day 0. The glucose consumption is calculated as a value (μmol/mg/h) obtained by measuring the amount of glucose decreased from the medium per hour (μmol/h) and correcting the same by the total cell protein (mg) and is expressed as a value relative to the actual value on day 0. Glucose and lactate were measured by using a Glucose assay kit (BioVision) (upper diagram in FIG. 8) and a Lactate assay kit (BioVision) (lower diagram in FIG. 8), respectively.

[2] = system: aged C57BL/6 mice; assay: Nutlin 3b administration to aged mice for 2 months, RT-PCR of senescence and inflammation markers; type: in vivo, mouse; conditions: 90 weeks, 11.63 mg/kg intraperitoneal once a week for 2 months
Method: Specifically, 16 aged C57BL/6 mice at 90 weeks of age were provided. The mice were divided into two groups (control: 8 mice, agent group: 8 mice), and intraperitoneal injection administration once a week was continued for 2 months. […] One week after the end of the last administration, all mice were dissected, and RNA was extracted from each organ. Senescence markers and inflammation markers were evaluated by RT-PCR.

[3] = system: p53; assay: p53 activation (Western blot of p53 and p21) in young IMR90 cells; type: cell-based, human; conditions: 20 μM for 48 hours
Text: After the treatment, proteins were extracted from the cells to carry out Western blotted.

[4] = system: IMR90 cells; assay: Senolysis / cell death of young and Ras-induced senescent IMR90 cells; type: cell-based, human
Text: Ras gene with oncogenic mutation was introduced into young cells (within 1 month of continuous culture) of IMR90 cells by retroviral infection to acquire senescent cells. […] The control received only DMSO treatment. Representative images of cells observed under a microscope are shown (FIG. 11).
An oncogenic mutated Ras gene was introduced into young cells (within 1 month of continuous culture) of IMR90 cells by retroviral infection to acquire stress-induced senescent cells. The young cells and the senescent cells were both treated with different concentrations of the RSK kinase inhibitor BI-D1870 for 96 hours to evaluate cell death.
An oncogenic mutated Ras gene was introduced into young cells (within 1 month of continuous culture) of IMR90 cells by retroviral infection to acquire stress-induced senescent cells. The young cells and the senescent cells of IMR90 were both transfected with an RSK1 siRNA (two types of siRNA #1 (SEQ ID NO: 7) or #2 (SEQ ID NO: 8) having different target sequences) or a control to knock down RSK1. Representative images of cells observed under a microscope are shown (upper diagram in FIG. 20).
An oncogenic Ras was introduced into young cells (within 1 month of continuous culture) of IMR90 cells to induce senescent cells (OIS). The young cells and the senescent cells of IMR90 were transfected with two HIF-2α-specific siRNAs (SEQ ID NO: 9 and SEQ ID NO: 10) having different target sequences to knock down HIF-2α.
An oncogenic Ras was introduced into young cells (within 1 month of continuous culture) of IMR90 cells to induce senescent cells (OIS). The young cells and the senescent cells of IMR90 were transfected with a BIM-specific siRNA to knock down BIM.
An oncogenic Ras was introduced into young cells (within 1 month of continuous culture) of IMR90 cells to induce senescent cells (OIS). In the young cells and the senescent cells of IMR90, HIF-2α alone or both HIF-2α and BIM were knocked down by using their respective specific siRNAs (SEQ ID NO: 9, SEQ ID NO: 10), and cell death was confirmed (FIG. 28).
The latter information consists of 12,655 ChIP datasets from 903 antigens (transcription factors and epigenetic regulators).

For `COc1ccc(C2=N[C@H](c3ccc(Cl)cc3)[C@H](c3ccc(Cl)cc3)N2C(=O)N2CCNC(=O)C2)c(OC(C)C)c1` [nutlin 3b], the glucose consumption [1] was “suppressed in a dose-dependent manner”, the lactate production [1] was “suppressed in a dose-dependent manner” and the “inflammatory markers (RT-PCR, organs)” value [2] was “reduced”. The “senescence markers (RT-PCR, organs)” value [2] was “reduced”, the “protein level of p21” value [3] was “almost unchanged” and the “protein level of p53” value [3] was “almost unchanged”. The “senolysis by nutlin 3b treatment in BIM knockdown cells” value ([4]; IMR90 cells transfected with BIM-specific siRNA, nutlin 3b 96 hours) was “rescued by BIM knockdown”, the “cell death observed under a microscope” value ([4]; young and Ras-induced senescent IMR90 cells, 40 μM for 72 hours) was “young cells are normal, but senescent cells selectively die” and the “senolytic effect (cell death)” value ([4]; young and senescent IMR90 cells, 96 hours, 20 or 40 μM) was “remarkable senolytic effect”.
